According to US9012655B2, “Antimicrobial/adjuvant compounds and methods” (Denouamed, Inc., priority 2011, dated 2015):
≈ marks a conversion by molar mass, not a printed value.

Legend:
Format in all cases: cell-based
[1] = system: Staphylococcus epidermidis NRS7; test: MIC panel of challenge pathogens (CLSI)
In short: (§1)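 Broth microdilution per CLSI guidelines. Final inoculum 2-8×10^5 CFU/ml, compounds serially two-fold diluted from 128 mg/L top concentration. Incubated in the dark at 30-37° C for 24-48 h, aerobic or anaerobic as appropriate. MIC read visually as 100% inhibition endpoint; MIC50 and MIC80 also reported.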

[2] = system: Staphylococcus aureus NRS2 (ATCC700698); test: MIC panel of challenge pathogens (CLSI)
In short: as §1

[3] = system: Staphylococcus aureus NRS383; test: MIC panel of challenge pathogens (CLSI)
In short: as §1

[4] = system: Staphylococcus aureus NRS1 (ATCC700699); test: MIC panel of challenge pathogens (CLSI)
In short: as §1

[5] = system: Staphylococcus aureus AUR59 7005; test: MIC panel of challenge pathogens (CLSI)
In short: as §1

[6] = system: Staphylococcus aureus EUP SAU040; test: MIC panel of challenge pathogens (CLSI)
In short: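 CLSI broth microdilution; inoculum 2-8×10^5 CFU/ml; 2-fold series, top 128 mg/L; 30-37° C, 24-48 h, dark; visual read, 100% inhibition endpoint.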

[7] = system: Staphylococcus aureus EUP MRSA004; test: MIC panel of challenge pathogens (CLSI)
In short: as §1

[8] = system: Staphylococcus epidermidis NRS122; test: MIC panel of challenge pathogens (CLSI)
In short: as §1

[9] = system: Staphylococcus aureus NRS384; test: MIC panel of challenge pathogens (CLSI)
In short: as §1

[10] = system: Staphylococcus aureus AUR58 7005; test: MIC panel of challenge pathogens (CLSI)
In short: as §1

[11] = system: Staphylococcus aureus AUR60 7005; test: MIC panel of challenge pathogens (CLSI)
In short: as §1

[12] = system: Staphylococcus aureus EUP MRSA002; test: MIC panel of challenge pathogens (CLSI), EUP MRSA002
Method: The inocula for each bacterial strain were prepared by picking 5-10 distinct colonies from the culture plates and suspending them in the appropriate broth as per Clinical and Laboratory Standards Institute (CLSI) guidelines M07-A8, M24-A or M11-A7 as appropriate. The inoculum was resuspended by vigorous shaking on a vortex mixer for 15 s. The turbidity was then adjusted to McFarland standard 0.5 ([…]). The inoculum was further diluted in the appropriate media for MIC tests to give a final inoculum in each well of 2-8×10^5 CFU/ml. MICs were tested in the appropriate broth in accordance with the appropriate CLSI guidelines.
A stock solution of each compound was prepared at a concentration of 1.28 g/L in DMSO. The stock was further diluted in the appropriate media to give a top starting concentration of 128 mg/L in the assay. 100 μL of the appropriate media, as per CLSI guidelines, was dispensed into each well in columns 2-12. 200 μL of the each compound solution (at 256 mg/L) was dispensed into each well in column 1. 100 μL aliquots were pipetted from column 1 wells and dispensed into column 2 with a multichannel pipette (±2% coefficient of variation) thus diluting two-fold. 100 μL samples were then pipetted from column 2 wells and dispensed into column 3. The process was repeated through to column 10. The final 100 μL of diluted drug from column 10 was then discarded. Row 11 acted as a positive control (no compound, but organisms added), Row 12 acted as a negative control (no compound, and no organisms added).
100 μL of the appropriate inoculum suspension in the appropriate media, as per CLSI guidelines, was added to the appropriate wells. […] All plates were incubated in the dark under aerobic or anaerobic conditions at 30-37° C. for 24-48 hours, according to the appropriate CLSI guideline. Plates were read visually 24-48 hours post inoculation. Endpoints of 100% inhibition were determined (CLSI interpretation endpoints following visual examination).
MIC50, MIC80, and 100% inhibition results are reported below in μg/mL in the following Tables, indicating each compound tested against a given species and strain: […]

[13] = Staphylococcus epidermidis NRS7
[14] = Staphylococcus aureus NRS2 (ATCC700698)
[15] = Staphylococcus aureus NRS1 (ATCC700699)
[16] = Staphylococcus aureus AUR59 7005
[17] = Staphylococcus aureus EUP SAU040
[18] = Staphylococcus aureus EUP MRSA004
[19] = Staphylococcus epidermidis NRS122
[20] = Staphylococcus aureus AUR58 7005
[21] = Staphylococcus aureus AUR60 7005
[22] = Staphylococcus aureus EUP MRSA002
[23] = Staphylococcus aureus, read-out: 100% inhibition
[24] = Staphylococcus aureus, read-out: MIC50 (50%)
[25] = Staphylococcus aureus, read-out: MIC80 (80%)

## Cc1ccc(-c2cc(-c3nn[nH]n3)cc(-c3ccccc3-c3ccccc3)c2)c2ccccc12 [DNM0474]
[1]; [13]
  100% inhibition: 1 µg/mL
  MIC50 (50%): 0.5 µg/mL (≈ 1.14 µM)
  MIC80 (80%): 1 µg/mL (≈ 2.28 µM)
[2]; [14]
  100% inhibition: 0.5 µg/mL
  MIC50 (50%): 0.5 µg/mL (≈ 1.14 µM)
  MIC80 (80%): 0.5 µg/mL (≈ 1.14 µM)
[3]; Staphylococcus aureus NRS383
  100% inhibition: 0.5 µg/mL
  MIC50 (50%): 0.5 µg/mL (≈ 1.14 µM)
  MIC80 (80%): 0.5 µg/mL (≈ 1.14 µM)
[4]; [15]
  100% inhibition: 0.5 µg/mL
  MIC50 (50%): 0.25 µg/mL (≈ 0.57 µM)
  MIC80 (80%): 0.5 µg/mL (≈ 1.14 µM)
[5]; [16]
  100% inhibition: 0.5 µg/mL
  MIC50 (50%): 0.5 µg/mL (≈ 1.14 µM)
  MIC80 (80%): 0.5 µg/mL (≈ 1.14 µM)
[6]; [17]
  100% inhibition: 0.25 µg/mL
  MIC50 (50%): 0.5 µg/mL (≈ 1.14 µM)
  MIC80 (80%): 0.5 µg/mL (≈ 1.14 µM)
[7]; [18]
  100% inhibition: 0.5 µg/mL
  MIC50 (50%): 0.5 µg/mL (≈ 1.14 µM)
  MIC80 (80%): 0.5 µg/mL (≈ 1.14 µM)
[8]; [19]
  100% inhibition: 16 µg/mL
  MIC50 (50%): 4 µg/mL (≈ 9.12 µM)
  MIC80 (80%): 8 µg/mL (≈ 18.2 µM)
[9]; Staphylococcus aureus NRS384
  100% inhibition: 0.5 µg/mL
  MIC50 (50%): 0.5 µg/mL (≈ 1.14 µM)
  MIC80 (80%): 0.5 µg/mL (≈ 1.14 µM)
[10]; [20]
  100% inhibition: 1 µg/mL
  MIC50 (50%): 0.5 µg/mL (≈ 1.14 µM)
  MIC80 (80%): 1 µg/mL (≈ 2.28 µM)
[11]; [21]
  100% inhibition: 0.5 µg/mL
  MIC50 (50%): 0.5 µg/mL (≈ 1.14 µM)
  MIC80 (80%): 0.5 µg/mL (≈ 1.14 µM)
[12]; [22]
  100% inhibition: 0.5 µg/mL
  MIC50 (50%): 0.5 µg/mL (≈ 1.14 µM)
  MIC80 (80%): 0.5 µg/mL (≈ 1.14 µM)

## CN[C@H](CC(C)C)C(=O)N[C@H]1C(=O)N[C@@H](CC(N)=O)C(=O)N[C@H]2C(=O)N[C@H]3C(=O)N[C@H](C(=O)N[C@H](C(=O)O)c4cc(O)cc(O)c4-c4cc3ccc4O)[C@H](O)c3ccc(c(Cl)c3)Oc3cc2cc(c3O[C@@H]2O[C@H](CO)[C@@H](O)[C@H](O)[C@H]2O[C@H]2C[C@](C)(N)[C@H](O)[C@H](C)O2)Oc2ccc(cc2Cl)[C@H]1O [Vancomycin, reference compound]
[1]; Staphylococcus epidermidis, NRS7, read-out: 100% inhibition
  MIC: 4 µg/mL (≈ 2.76 µM)
[1]; Staphylococcus epidermidis, NRS7, read-out: MIC50 (50%)
  MIC50: 2 µg/mL (≈ 1.38 µM)
[1]; Staphylococcus epidermidis, NRS7, read-out: MIC80 (80%)
  MIC80: 4 µg/mL (≈ 2.76 µM)
[2]; [23]
  MIC: 1 µg/mL (≈ 0.69 µM)
[2]; [24]
  MIC50: 0.5 µg/mL (≈ 0.345 µM)
[2]; [25]
  MIC80: 1 µg/mL (≈ 0.69 µM)
[3]; Staphylococcus aureus, NRS383, read-out: 100% inhibition
  MIC: 0.5 µg/mL (≈ 0.345 µM)
[3]; Staphylococcus aureus, NRS383, read-out: MIC50 (50%)
  MIC50: 0.5 µg/mL (≈ 0.345 µM)
[3]; Staphylococcus aureus, NRS383, read-out: MIC80 (80%)
  MIC80: 0.5 µg/mL (≈ 0.345 µM)
[4]; [23]
  MIC: 4 µg/mL (≈ 2.76 µM)
[4]; [24]
  MIC50: 2 µg/mL (≈ 1.38 µM)
[4]; [25]
  MIC80: 4 µg/mL (≈ 2.76 µM)
[5]; Staphylococcus aureus, AUR597005, read-out: 100% inhibition
  MIC: 1 µg/mL (≈ 0.69 µM)
[5]; Staphylococcus aureus, AUR597005, read-out: MIC50 (50%)
  MIC50: 0.5 µg/mL (≈ 0.345 µM)
[5]; Staphylococcus aureus, AUR597005, read-out: MIC80 (80%)
  MIC80: 0.5 µg/mL (≈ 0.345 µM)
[6]; Staphylococcus aureus, EUPSAU040, read-out: 100% inhibition
  MIC: 1 µg/mL (≈ 0.69 µM)
[6]; Staphylococcus aureus, EUPSAU040, read-out: MIC50 (50%)
  MIC50: 1 µg/mL (≈ 0.69 µM)
[6]; Staphylococcus aureus, EUPSAU040, read-out: MIC80 (80%)
  MIC80: 1 µg/mL (≈ 0.69 µM)
[7]; Staphylococcus aureus, EUPMRSA004, read-out: 100% inhibition
  MIC: 0.5 µg/mL (≈ 0.345 µM)
[7]; Staphylococcus aureus, EUPMRSA004, read-out: MIC50 (50%)
  MIC50: 0.5 µg/mL (≈ 0.345 µM)
[7]; Staphylococcus aureus, EUPMRSA004, read-out: MIC80 (80%)
  MIC80: 0.5 µg/mL (≈ 0.345 µM)
[8]; Staphylococcus epidermidis, NRS122, read-out: 100% inhibition
  MIC: 2 µg/mL (≈ 1.38 µM)
[8]; Staphylococcus epidermidis, NRS122, read-out: MIC50 (50%)
  MIC50: 1 µg/mL (≈ 0.69 µM)
[8]; Staphylococcus epidermidis, NRS122, read-out: MIC80 (80%)
  MIC80: 1 µg/mL (≈ 0.69 µM)
[9]; Staphylococcus aureus, NRS384, read-out: 100% inhibition
  MIC: 1 µg/mL (≈ 0.69 µM)
[9]; Staphylococcus aureus, NRS384, read-out: MIC50 (50%)
  MIC50: 1 µg/mL (≈ 0.69 µM)
[9]; Staphylococcus aureus, NRS384, read-out: MIC80 (80%)
  MIC80: 1 µg/mL (≈ 0.69 µM)
[10]; Staphylococcus aureus, AUR587005, read-out: 100% inhibition
  MIC: 1 µg/mL (≈ 0.69 µM)
[10]; Staphylococcus aureus, AUR587005, read-out: MIC50 (50%)
  MIC50: 1 µg/mL (≈ 0.69 µM)
[10]; Staphylococcus aureus, AUR587005, read-out: MIC80 (80%)
  MIC80: 1 µg/mL (≈ 0.69 µM)
[11]; Staphylococcus aureus, AUR607005, read-out: 100% inhibition
  MIC: 1 µg/mL (≈ 0.69 µM)
[11]; Staphylococcus aureus, AUR607005, read-out: MIC50 (50%)
  MIC50: 0.5 µg/mL (≈ 0.345 µM)
[11]; Staphylococcus aureus, AUR607005, read-out: MIC80 (80%)
  MIC80: 1 µg/mL (≈ 0.69 µM)
[12]; Staphylococcus aureus, EUPMRSA002, read-out: 100% inhibition
  MIC: 0.5 µg/mL (≈ 0.345 µM)
[12]; Staphylococcus aureus, EUPMRSA002, read-out: MIC50 (50%)
  MIC50: 0.5 µg/mL (≈ 0.345 µM)
[12]; Staphylococcus aureus, EUPMRSA002, read-out: MIC80 (80%)
  MIC80: 0.5 µg/mL (≈ 0.345 µM)
